In publication PMC7156458, “Synthetic biology based construction of biological activity-related library of fungal decalin-containing diterpenoid pyrones” (Nature Communications, 2020):

Target: Aβ42 (Homo sapiens, UniProt P05067)
Assay: Th-T (thioflavin-T) assay of Aβ42 aggregation
Type: biochemical
Details: for Th-T assay plate reading, mean of three wells (Supplementary Fig. 47): source data, Ab alone and No Ab as controls

Sequence of Aβ42 (P05067 672-713): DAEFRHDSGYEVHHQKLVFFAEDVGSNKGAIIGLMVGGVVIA

Question: What does the source list for C=C1CC[C@H]2[C@]3(C)C[C@H](C=C(C)C)O[C@H]3CC[C@]2(C)[C@@H]1Cc1c(OC)oc(C)c(C)c1=O [Compound 24]?
Answer: Th-T fluorescence, mean of three wells (Aβ42 aggregation time course, reading M117): 3.93; Th-T fluorescence, mean of three wells (Aβ42 aggregation time course, reading M118): 3.9367; Th-T fluorescence, mean of three wells (Aβ42 aggregation time course, reading M119): 3.915; Th-T fluorescence, mean of three wells (Aβ42 aggregation time course, reading M120): 3.905; Th-T fluorescence, mean of three wells (Aβ42 aggregation time course, reading M121): 3.903; Th-T fluorescence, mean of three wells (Aβ42 aggregation time course, reading M122): 3.899; Th-T fluorescence, mean of three wells (Aβ42 aggregation time course, reading M123): 3.9273; Th-T fluorescence, mean of three wells (Aβ42 aggregation time course, reading M124): 3.899; Th-T fluorescence, mean of three wells (Aβ42 aggregation time course, reading M125): 3.909; Th-T fluorescence, mean of three wells (Aβ42 aggregation time course, reading M126): 3.889; Th-T fluorescence, mean of three wells (Aβ42 aggregation time course, reading M127): 3.86; Th-T fluorescence, mean of three wells (Aβ42 aggregation time course, reading M128): 3.875; Th-T fluorescence, mean of three wells (Aβ42 aggregation time course, reading M129): 3.876; Th-T fluorescence, mean of three wells (Aβ42 aggregation time course, reading M130): 3.844; Th-T fluorescence, mean of three wells (Aβ42 aggregation time course, reading M131): 3.869; Th-T fluorescence, mean of three wells (Aβ42 aggregation time course, reading M132): 3.865; Th-T fluorescence, mean of three wells (Aβ42 aggregation time course, reading M133): 3.8524; Th-T fluorescence, mean of three wells (Aβ42 aggregation time course, reading M134): 3.8749; Th-T fluorescence, mean of three wells (Aβ42 aggregation time course, reading M135): 3.85; Th-T fluorescence, mean of three wells (Aβ42 aggregation time course, reading M136): 3.855; Th-T fluorescence, mean of three wells (Supplementary Fig. 47, reading M137): 3.87; Th-T fluorescence, mean of three wells (Supplementary Fig. 47, reading M138): 3.855; Th-T fluorescence, mean of three wells (Supplementary Fig. 47, reading M139): 3.871; Th-T fluorescence, mean of three wells (Supplementary Fig. 47, reading M140): 3.832; Th-T fluorescence, mean of three wells (Supplementary Fig. 47, reading M141): 3.853; Th-T fluorescence, mean of three wells (Supplementary Fig. 47, reading M142): 3.823; Th-T fluorescence, mean of three wells (Supplementary Fig. 47, reading M143): 3.843; Th-T fluorescence, mean of three wells (Supplementary Fig. 47, reading M144): 3.8288; Th-T fluorescence, mean of three wells (Supplementary Fig. 47, reading M145): 3.794; Th-T fluorescence, mean of three wells (Supplementary Fig. 47 source data, measurement M37 of time course): 4.118; Th-T fluorescence, mean of three wells (Supplementary Fig. 47 source data, measurement M38 of time course): 4.1; Th-T fluorescence, mean of three wells (Supplementary Fig. 47 source data, measurement M39 of time course): 4.133; Th-T fluorescence, mean of three wells (Supplementary Fig. 47 source data, measurement M40 of time course): 4.141; Th-T fluorescence, mean of three wells (Supplementary Fig. 47 source data, measurement M41 of time course): 4.132; Th-T fluorescence, mean of three wells (Supplementary Fig. 47 source data, measurement M42 of time course): 4.118; Th-T fluorescence, mean of three wells (Supplementary Fig. 47 source data, measurement M43 of time course): 4.101; Th-T fluorescence, mean of three wells (Supplementary Fig. 47 source data, measurement M44 of time course): 4.12; Th-T fluorescence, mean of three wells (Supplementary Fig. 47 source data, measurement M45 of time course): 4.146; Th-T fluorescence, mean of three wells (Supplementary Fig. 47 source data, measurement M46 of time course): 4.159; Th-T fluorescence, mean of three wells (Supplementary Fig. 47 source data, measurement M47 of time course): 4.139; Th-T fluorescence, mean of three wells (Supplementary Fig. 47 source data, measurement M48 of time course): 4.146; Th-T fluorescence, mean of three wells (Supplementary Fig. 47 source data, measurement M49 of time course): 4.116; Th-T fluorescence, mean of three wells (Supplementary Fig. 47 source data, measurement M50 of time course): 4.153; Th-T fluorescence, mean of three wells (Supplementary Fig. 47 source data, measurement M51 of time course): 4.157; Th-T fluorescence, mean of three wells (Supplementary Fig. 47 source data, measurement M52 of time course): 4.123; Th-T fluorescence, mean of three wells (Supplementary Fig. 47 source data, measurement M53 of time course): 4.133; Th-T fluorescence, mean of three wells (Supplementary Fig. 47 source data, measurement M54 of time course): 4.156; Th-T fluorescence, mean of three wells (Supplementary Fig. 47 source data, measurement M55 of time course): 4.1334; Th-T fluorescence, mean of three wells (Supplementary Fig. 47 source data, measurement M56 of time course): 4.113; Th-T assay plate reading, mean of three wells (Supplementary Fig. 47) (measurement M1): 0.168; Th-T assay plate reading, mean of three wells (Supplementary Fig. 47) (measurement M2): 0.1686; Th-T assay plate reading, mean of three wells (Supplementary Fig. 47) (measurement M3): 0.1808; Th-T assay plate reading, mean of three wells (Supplementary Fig. 47) (measurement M4): 0.1943; Th-T assay plate reading, mean of three wells (Supplementary Fig. 47) (measurement M5): 0.213; Th-T assay plate reading, mean of three wells (Supplementary Fig. 47) (measurement M6): 0.2405; Th-T assay plate reading, mean of three wells (Supplementary Fig. 47) (measurement M7): 0.3234; Th-T assay plate reading, mean of three wells (Supplementary Fig. 47) (measurement M8): 0.379; Th-T assay plate reading, mean of three wells (Supplementary Fig. 47) (measurement M9): 0.4389; Th-T assay plate reading, mean of three wells (Supplementary Fig. 47) (measurement M10): 0.7586; Th-T assay plate reading, mean of three wells (Supplementary Fig. 47) (measurement M11): 1.544; Th-T assay plate reading, mean of three wells (Supplementary Fig. 47) (measurement M12): 2.364; Th-T assay plate reading, mean of three wells (Supplementary Fig. 47) (measurement M13): 2.959; Th-T assay plate reading, mean of three wells (Supplementary Fig. 47) (measurement M14): 3.254; Th-T assay plate reading, mean of three wells (Supplementary Fig. 47) (measurement M15): 3.396; Th-T assay plate reading, mean of three wells (Supplementary Fig. 47) (measurement M16): 3.5133; Th-T fluorescence, mean of three wells (reading M17, Supplementary Fig. 47 source data): 3.637; Th-T fluorescence, mean of three wells (reading M18, Supplementary Fig. 47 source data): 3.688; Th-T fluorescence, mean of three wells (reading M19, Supplementary Fig. 47 source data): 3.715; Th-T fluorescence, mean of three wells (reading M20, Supplementary Fig. 47 source data): 3.759; Th-T fluorescence, mean of three wells (reading M21, Supplementary Fig. 47 source data): 3.811; Th-T fluorescence, mean of three wells (reading M22, Supplementary Fig. 47 source data): 3.836; Th-T fluorescence, mean of three wells (reading M23, Supplementary Fig. 47 source data): 3.884; Th-T fluorescence, mean of three wells (reading M24, Supplementary Fig. 47 source data): 3.963; Th-T fluorescence, mean of three wells (reading M25, Supplementary Fig. 47 source data): 3.926; Th-T fluorescence, mean of three wells (reading M26, Supplementary Fig. 47 source data): 3.978; Th-T fluorescence, mean of three wells (reading M27, Supplementary Fig. 47 source data): 3.957; Th-T fluorescence, mean of three wells (reading M28, Supplementary Fig. 47 source data): 4.012; Th-T fluorescence, mean of three wells (reading M29, Supplementary Fig. 47 source data): 4.002; Th-T fluorescence, mean of three wells (reading M30, Supplementary Fig. 47 source data): 4.039; Th-T fluorescence, mean of three wells (reading M31, Supplementary Fig. 47 source data): 4.06; Th-T fluorescence, mean of three wells (reading M32, Supplementary Fig. 47 source data): 4.053; Th-T fluorescence, mean of three wells (reading M33, Supplementary Fig. 47 source data): 4.071; Th-T fluorescence, mean of three wells (reading M34, Supplementary Fig. 47 source data): 4.107; Th-T fluorescence, mean of three wells (reading M35, Supplementary Fig. 47 source data): 4.086; Th-T fluorescence, mean of three wells (reading M36, Supplementary Fig. 47 source data): 4.108; Th-T fluorescence, mean of three wells (time course, reading M57): 4.13; Th-T fluorescence, mean of three wells (time course, reading M58): 4.119; Th-T fluorescence, mean of three wells (time course, reading M59): 4.1173; Th-T fluorescence, mean of three wells (time course, reading M60): 4.127; Th-T fluorescence, mean of three wells (time course, reading M61): 4.118; Th-T fluorescence, mean of three wells (time course, reading M62): 4.092; Th-T fluorescence, mean of three wells (time course, reading M63): 4.112; Th-T fluorescence, mean of three wells (time course, reading M64): 4.119; Th-T fluorescence, mean of three wells (time course, reading M65): 4.128; Th-T fluorescence, mean of three wells (time course, reading M66): 4.121; Th-T fluorescence, mean of three wells (time course, reading M67): 4.11; Th-T fluorescence, mean of three wells (time-course reading M97, Supplementary Fig. 47 source data): 3.985; Th-T fluorescence, mean of three wells (time-course reading M98, Supplementary Fig. 47 source data): 4.028; Th-T fluorescence, mean of three wells (time-course reading M99, Supplementary Fig. 47 source data): 3.988; Th-T fluorescence, mean of three wells (time-course reading M100, Supplementary Fig. 47 source data): 4.004; Th-T fluorescence, mean of three wells (time-course reading M101, Supplementary Fig. 47 source data): 3.9991; Th-T fluorescence, mean of three wells (time-course reading M102, Supplementary Fig. 47 source data): 3.997; Th-T fluorescence, mean of three wells (time-course reading M103, Supplementary Fig. 47 source data): 3.988; Th-T fluorescence, mean of three wells (time-course reading M104, Supplementary Fig. 47 source data): 3.979; Th-T fluorescence, mean of three wells (time-course reading M105, Supplementary Fig. 47 source data): 4.002; Th-T fluorescence, mean of three wells (time-course reading M106, Supplementary Fig. 47 source data): 3.966; Th-T fluorescence, mean of three wells (time-course reading M107, Supplementary Fig. 47 source data): 3.935; Th-T fluorescence, mean of three wells (time-course reading M108, Supplementary Fig. 47 source data): 3.958; Th-T fluorescence, mean of three wells (time-course reading M109, Supplementary Fig. 47 source data): 3.936; Th-T fluorescence, mean of three wells (time-course reading M110, Supplementary Fig. 47 source data): 3.951; Th-T fluorescence, mean of three wells (time-course reading M111, Supplementary Fig. 47 source data): 3.932; Th-T fluorescence, mean of three wells (time-course reading M112, Supplementary Fig. 47 source data): 3.941; Th-T fluorescence, mean of three wells (time-course reading M113, Supplementary Fig. 47 source data): 3.942; Th-T fluorescence, mean of three wells (time-course reading M114, Supplementary Fig. 47 source data): 3.927; Th-T fluorescence, mean of three wells (time-course reading M115, Supplementary Fig. 47 source data): 3.938; Th-T fluorescence, mean of three wells (time-course reading M116, Supplementary Fig. 47 source data): 3.922
